Experimental data taken from ChEMBL document CHEMBL4627344, “Synthesis, biological evaluation and virtual screening of some acridone derivatives as potential anticancer agents” (2020).

Assays:
Format in all cases: functional
UO-31 = assay: Antiproliferative activity against human UO31 cells assessed as inhibition of cell growth measured after 48 hrs by SRB assay; settings: UO-31, 48 h
NCI-H226 [1] = assay: Antiproliferative activity against human NCI-H226 cells assessed as inhibition of cell growth at 10 uM measured after 48 hrs by SRB assay relative to control; settings: NCI-H226, 48 h, read-out: GI
OVCAR-3 = assay: Antiproliferative activity against human OVCAR3 cells assessed as inhibition of cell growth measured after 48 hrs by SRB assay; settings: OVCAR-3, 48 h
HCT-116 = assay: Antiproliferative activity against human HCT116 cells assessed as inhibition of cell growth at 10 uM measured after 48 hrs by SRB assay relative to control; settings: HCT-116, 48 h, read-out: GI
NCI-H522 = assay: Antiproliferative activity against human NCI-H522 cells assessed as inhibition of cell growth at 10 uM measured after 48 hrs by SRB assay relative to control; settings: NCI-H522, 48 h, read-out: GI
NCI-H23 = assay: Antiproliferative activity against human NCI-H23 cells assessed as inhibition of cell growth measured after 48 hrs by SRB assay; settings: NCI-H23, 48 h
M14 = assay: Antiproliferative activity against human M14 cells assessed as inhibition of cell growth measured after 48 hrs by SRB assay; settings: M14, 48 h
U-251 = assay: Antiproliferative activity against human U251 cells assessed as inhibition of cell growth at 10 uM measured after 48 hrs by SRB assay relative to control; settings: U-251, 48 h, read-out: GI
HCC 2998 [2] = assay: Antiproliferative activity against human HCC2998 cells assessed as inhibition of cell growth at 10 uM measured after 48 hrs by SRB assay relative to control; settings: HCC 2998, 48 h, read-out: GI
PC-3 = assay: Antiproliferative activity against human PC3 cells assessed as inhibition of cell growth at 10 uM measured after 48 hrs by SRB assay relative to control; settings: PC-3, 48 h, read-out: GI
A549 [3] = assay: Antiproliferative activity against human A549 cells assessed as inhibition of cell growth at 10 uM measured after 48 hrs by SRB assay relative to control; settings: A549, 48 h, read-out: GI
SF-295 [4] = assay: Antiproliferative activity against human SF295 cells assessed as inhibition of cell growth measured after 48 hrs by SRB assay; settings: SF-295, 48 h
MDA-MB-468 = assay: Antiproliferative activity against human MDA-MB-468 cells assessed as inhibition of cell growth at 10 uM measured after 48 hrs by SRB assay relative to control; settings: MDA-MB-468, 48 h, read-out: GI
SK-MEL-5 = assay: Antiproliferative activity against human SK-MEL-5 cells assessed as inhibition of cell growth measured after 48 hrs by SRB assay; settings: SK-MEL-5, 48 h
OVCAR-8 = assay: Antiproliferative activity against human OVCAR8 cells assessed as inhibition of cell growth at 10 uM measured after 48 hrs by SRB assay relative to control; settings: OVCAR-8, 48 h, read-out: GI
NCI-H322M = assay: Antiproliferative activity against human NCI-H322M cells assessed as inhibition of cell growth measured after 48 hrs by SRB assay
A549 [5] = assay: Antiproliferative activity against human A549 cells assessed as inhibition of cell growth measured after 48 hrs by SRB assay; settings: A549, 48 h
SF-295 [6] = assay: Antiproliferative activity against human SF295 cells assessed as inhibition of cell growth at 10 uM measured after 48 hrs by SRB assay relative to control; settings: SF-295, 48 h, read-out: GI
MCF7 = assay: Antiproliferative activity against human MCF7 cells assessed as inhibition of cell growth measured after 48 hrs by SRB assay; settings: MCF7, 48 h
BT-549 [7] = assay: Antiproliferative activity against human BT549 cells assessed as inhibition of cell growth at 10 uM measured after 48 hrs by SRB assay relative to control; settings: BT-549, 48 h, read-out: GI
SR [8] = assay: Antiproliferative activity against human SR cells assessed as inhibition of cell growth measured after 48 hrs by SRB assay
MDA-MB-435 = assay: Antiproliferative activity against human MDA-MB-435 cells assessed as inhibition of cell growth at 10 uM measured after 48 hrs by SRB assay relative to control; settings: MDA-MB-435, 48 h, read-out: GI
SW-620 [9] = assay: Antiproliferative activity against human SW620 cells assessed as inhibition of cell growth measured after 48 hrs by SRB assay; settings: SW-620, 48 h
786-0 = assay: Antiproliferative activity against human 786-0 cells assessed as inhibition of cell growth measured after 48 hrs by SRB assay; settings: 786-0, 48 h
SNB-19 = assay: Antiproliferative activity against human SNB19 cells assessed as inhibition of cell growth measured after 48 hrs by SRB assay; settings: SNB-19, 48 h
COLO 205 = assay: Antiproliferative activity against human COLO205 cells assessed as inhibition of cell growth measured after 48 hrs by SRB assay; settings: COLO 205, 48 h
MOLT-4 = assay: Antiproliferative activity against human MOLT4 cells assessed as inhibition of cell growth measured after 48 hrs by SRB assay; settings: MOLT-4, 48 h
ACHN = assay: Antiproliferative activity against human ACHN cells assessed as inhibition of cell growth at 10 uM measured after 48 hrs by SRB assay relative to control; settings: read-out: GI
KM12 = assay: Antiproliferative activity against human KM12 cells assessed as inhibition of cell growth measured after 48 hrs by SRB assay; settings: KM12, 48 h
SW-620 [10] = assay: Antiproliferative activity against human SW620 cells assessed as inhibition of cell growth at 10 uM measured after 48 hrs by SRB assay relative to control; settings: SW-620, 48 h, read-out: GI
MDA-MB-231 = assay: Antiproliferative activity against human MDA-MB-231 cells assessed as inhibition of cell growth at 10 uM measured after 48 hrs by SRB assay relative to control; settings: MDA-MB-231, 48 h, read-out: GI
CAKI-1 = assay: Antiproliferative activity against human CAKI-1 cells assessed as inhibition of cell growth measured after 48 hrs by SRB assay; settings: CAKI-1, 48 h
SR [11] = assay: Antiproliferative activity against human SR cells assessed as inhibition of cell growth at 10 uM measured after 48 hrs by SRB assay relative to control; settings: read-out: GI
BT-549 [12] = assay: Antiproliferative activity against human BT549 cells assessed as inhibition of cell growth measured after 48 hrs by SRB assay; settings: BT-549, 48 h
HCC 2998 [13] = assay: Antiproliferative activity against human HCC2998 cells assessed as inhibition of cell growth measured after 48 hrs by SRB assay; settings: HCC 2998, 48 h
NCI-H226 [14] = assay: Antiproliferative activity against human NCI-H226 cells assessed as inhibition of cell growth measured after 48 hrs by SRB assay; settings: NCI-H226, 48 h

SMILES	GI50 (UO-31)	inhibition of growth at 10 µM (NCI-H226 [1])	GI50 (OVCAR-3)	inhibition of growth at 10 µM (HCT-116)	inhibition of growth at 10 µM (NCI-H522)	GI50 (NCI-H23)	GI50 (M14)	inhibition of growth at 10 µM (U-251)	inhibition of growth at 10 µM (HCC 2998 [2])	inhibition of growth at 10 µM (PC-3)	GI50 (SF-295 [4])	inhibition of growth at 10 µM (MDA-MB-468)	GI50 (SK-MEL-5)	inhibition of growth at 10 µM (OVCAR-8)	GI50 (NCI-H322M)	GI50 (A549 [5])	inhibition of growth at 10 µM (SF-295 [6])	GI50 (MCF7)	inhibition of growth at 10 µM (BT-549 [7])	GI50 (SR [8])	other results
COc1ccc2nc3c(cc2c1)C(=O)CC(C(F)(F)F)C3 (stereo not drawn)	2000 nM	60.2%	1830 nM	88.1%	68.1%	5150 nM	238 nM	15.3%	16%	67%	853 nM	64.4%	411 nM	60%	1320 nM	3030 nM	54.7%	3420 nM	39.1%	217 nM	inhibition of growth at 10 µM (A549 [3]): 60.7%; inhibition of growth at 10 µM (MDA-MB-435): 148%; GI50 (SW-620 [9]): 3450 nM; GI50 (786-0): 6570 nM; GI50 (SNB-19): 3610 nM; GI50 (COLO 205): 1160 nM; GI50 (MOLT-4): 88.2 nM; inhibition of growth at 10 µM (ACHN): 50.8%; GI50 (KM12): 316 nM; inhibition of growth at 10 µM (SW-620 [10]): 58.5%; inhibition of growth at 10 µM (MDA-MB-231): 40%; GI50 (CAKI-1): 690 nM; inhibition of growth at 10 µM (SR [11]): 83.6%
COc1ccc2nc3c(cc2c1)C(=O)CC(c1ccccc1)C3 (stereo not drawn)	543 nM	73.5%	1230 nM	88.9%	84.6%	6180 nM	259 nM	55%	8.74%	71.2%	634 nM	31.7%	540 nM	61%	5780 nM	2070 nM	69%	3490 nM	48.3%	322 nM	inhibition of growth at 10 µM (A549 [3]): 65.2%; GI50 (BT-549 [12]): 2210 nM; inhibition of growth at 10 µM (MDA-MB-435): 168%; GI50 (SW-620 [9]): 747 nM; GI50 (786-0): 4370 nM; GI50 (SNB-19): 2620 nM; GI50 (COLO 205): 608 nM; GI50 (MOLT-4): 431 nM; inhibition of growth at 10 µM (ACHN): 56.1%; GI50 (KM12): 450 nM; inhibition of growth at 10 µM (SW-620 [10]): 82.2%; inhibition of growth at 10 µM (MDA-MB-231): 45.4%; GI50 (CAKI-1): 525 nM; inhibition of growth at 10 µM (SR [11]): 82.3%
O=C1CC(c2ccccc2)Cc2nc3ccc(Br)cc3cc21 (stereo not drawn)	640 nM	75.9%	289 nM	94.4%	104%	616 nM	50.5 nM	81.9%	73%	68%	206 nM	99.7%	288 nM	75.9%	623 nM	419 nM	82.8%	2760 nM	93.5%	56.7 nM	inhibition of growth at 10 µM (A549 [3]): 76.2%; GI50 (BT-549 [12]): 685 nM; GI50 (HCC 2998 [13]): 2580 nM; inhibition of growth at 10 µM (MDA-MB-435): 140%; GI50 (SW-620 [9]): 360 nM; GI50 (786-0): 784 nM; GI50 (SNB-19): 434 nM; GI50 (COLO 205): 261 nM; GI50 (MOLT-4): 53.7 nM; GI50 (NCI-H226 [14]): 2250 nM; inhibition of growth at 10 µM (ACHN): 65.7%; GI50 (KM12): 341 nM; inhibition of growth at 10 µM (SW-620 [10]): 74.9%; inhibition of growth at 10 µM (MDA-MB-231): 86.8%; GI50 (CAKI-1): 207 nM; inhibition of growth at 10 µM (SR [11]): 86.9%
O=C1CC(c2ccccc2)Cc2nc3c(Br)cc(Br)cc3cc21 (stereo not drawn)	79.5 nM	85.9%	30.2 nM	93.8%	91.5%	260 nM	284 nM	91.4%	93.5%	77.4%	196 nM	116%	298 nM	96%	74.8 nM	79.2 nM	132%	382 nM	94.7%	91.3 nM	GI50 (BT-549 [12]): 541 nM; GI50 (HCC 2998 [13]): 282 nM; inhibition of growth at 10 µM (MDA-MB-435): 124%; GI50 (SW-620 [9]): 83.9 nM; GI50 (786-0): 813 nM; GI50 (SNB-19): 406 nM; GI50 (COLO 205): 152 nM; GI50 (MOLT-4): 104 nM; GI50 (NCI-H226 [14]): 241 nM; inhibition of growth at 10 µM (ACHN): 70.3%; GI50 (KM12): 242 nM; inhibition of growth at 10 µM (SW-620 [10]): 77.6%; inhibition of growth at 10 µM (MDA-MB-231): 84.9%; GI50 (CAKI-1): 145 nM; inhibition of growth at 10 µM (SR [11]): 80.5%
